This note sets out measurements from ChEMBL document CHEMBL1145380, “Optimization of 1,3,4-benzotriazepine-based CCK(2) antagonists to obtain potent, orally active inhibitors of gastrin-mediated gastric acid secretion” (J Med Chem, 2007).

The target of data set [1] is T1, Cholecystokinin receptor type A (Homo sapiens, UniProt P32238).
T1 sequence (P32238 whole entry): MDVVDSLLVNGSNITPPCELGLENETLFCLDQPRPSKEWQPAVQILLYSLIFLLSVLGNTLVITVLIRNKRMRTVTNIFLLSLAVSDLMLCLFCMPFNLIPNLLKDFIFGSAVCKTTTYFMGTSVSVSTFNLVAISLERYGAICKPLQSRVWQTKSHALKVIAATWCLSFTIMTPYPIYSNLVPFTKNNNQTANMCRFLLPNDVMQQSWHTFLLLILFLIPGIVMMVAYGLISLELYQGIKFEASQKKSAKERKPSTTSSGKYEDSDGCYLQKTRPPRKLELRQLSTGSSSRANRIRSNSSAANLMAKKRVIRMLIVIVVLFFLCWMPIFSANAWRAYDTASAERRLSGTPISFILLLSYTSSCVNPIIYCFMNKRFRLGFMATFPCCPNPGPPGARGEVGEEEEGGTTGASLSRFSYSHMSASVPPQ
As to the kind of experiment: Displacement of [3H]L-364718 from human recombinant CCK1 receptor expressed in CHOK1 cells. Format: cell-based, CHO-K1. In general terms: In a radioligand displacement assay an active substance lowers the binding of a labelled ligand.

Data set [2] concerns the target T2, Gastrin/cholecystokinin type B receptor (Canis lupus familiaris, UniProt P30552).
T2 sequence (P30552 whole entry): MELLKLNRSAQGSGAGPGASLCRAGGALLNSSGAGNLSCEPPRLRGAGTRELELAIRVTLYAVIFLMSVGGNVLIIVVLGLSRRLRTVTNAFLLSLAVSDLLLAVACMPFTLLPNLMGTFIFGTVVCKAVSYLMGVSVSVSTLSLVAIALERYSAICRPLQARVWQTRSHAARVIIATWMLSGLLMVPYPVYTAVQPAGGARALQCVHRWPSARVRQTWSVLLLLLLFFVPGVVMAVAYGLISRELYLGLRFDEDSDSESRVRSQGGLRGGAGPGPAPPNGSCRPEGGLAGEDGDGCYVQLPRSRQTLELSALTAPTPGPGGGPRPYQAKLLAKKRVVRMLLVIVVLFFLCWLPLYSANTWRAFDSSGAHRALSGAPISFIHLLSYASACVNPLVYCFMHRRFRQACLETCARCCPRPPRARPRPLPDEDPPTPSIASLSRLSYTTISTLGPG
As to the kind of experiment: Displacement of [125I]BH-[…] from CCK2 receptor in canine gastric mucosa. It is filed as tissue-based.

In data set [3] the target is T3, Gastrin/cholecystokinin type B receptor (Canis lupus familiaris) (UniProt P30552).
T3 sequence (whole entry): T2 sequence (P30552 whole entry)
As to the kind of experiment: Inhibition of pentagastrin-stimulated gastric acid secretion in intragastrically dosed conscious gastric fistula dog. Format: functional, organism-based. The conditions noted are these: Stomach.

The target in data set [4] is T4, Gastrin/cholecystokinin type B receptor (Homo sapiens, UniProt P32239).
T4 sequence (P32239 whole entry): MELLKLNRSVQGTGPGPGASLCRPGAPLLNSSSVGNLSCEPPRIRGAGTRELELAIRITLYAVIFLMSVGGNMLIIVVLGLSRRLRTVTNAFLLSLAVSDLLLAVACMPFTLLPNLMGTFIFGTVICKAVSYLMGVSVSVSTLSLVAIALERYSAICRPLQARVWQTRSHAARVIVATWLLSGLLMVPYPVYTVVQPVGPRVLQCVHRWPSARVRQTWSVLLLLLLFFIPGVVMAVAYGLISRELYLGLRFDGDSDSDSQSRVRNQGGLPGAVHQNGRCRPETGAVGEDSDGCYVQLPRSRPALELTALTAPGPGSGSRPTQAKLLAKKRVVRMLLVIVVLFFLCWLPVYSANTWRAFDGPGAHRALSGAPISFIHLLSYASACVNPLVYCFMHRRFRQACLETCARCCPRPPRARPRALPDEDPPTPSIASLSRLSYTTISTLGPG
As to the kind of experiment: Displacement of [125I]BH-CCK-8S from human recombinant CCK2 receptor expressed in NIH3T3 cells.

Data set [5] addresses T1, Cholecystokinin receptor type A. As to the kind of experiment: Displacement of [3H]L-364718 from human recombinant CCK1 receptor expressed in PC3 cells. Format: cell-based, PC-3.
Data set [6] concerns the target T5, Gastrin/cholecystokinin type B receptor (Rattus norvegicus, UniProt P30553).
T5 sequence (P30553 whole entry): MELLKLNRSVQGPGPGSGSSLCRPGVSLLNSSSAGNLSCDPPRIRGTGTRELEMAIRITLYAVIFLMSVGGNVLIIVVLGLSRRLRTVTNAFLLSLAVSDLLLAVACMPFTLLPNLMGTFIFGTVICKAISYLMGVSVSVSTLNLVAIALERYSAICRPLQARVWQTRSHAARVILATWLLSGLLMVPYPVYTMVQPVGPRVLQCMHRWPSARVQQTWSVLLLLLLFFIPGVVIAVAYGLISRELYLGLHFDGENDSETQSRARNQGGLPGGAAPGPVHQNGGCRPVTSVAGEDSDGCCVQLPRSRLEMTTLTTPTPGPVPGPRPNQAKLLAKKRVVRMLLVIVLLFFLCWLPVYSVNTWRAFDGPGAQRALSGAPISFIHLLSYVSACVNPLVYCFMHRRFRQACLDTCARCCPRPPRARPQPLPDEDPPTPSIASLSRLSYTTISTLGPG
In words: Antagonist activity at CCK2 receptor in perfused rat stomach assessed as inhibition of pentagastrin-stimulated gastric acid secretion. Format: functional, tissue-based. The conditions noted are these: read-out: pA2 (converted).

Data set [7] concerns the target T3, Gastrin/cholecystokinin type B receptor (Canis lupus familiaris). In words: Inhibition of pentagastrin-stimulated gastric acid secretion in iv dosed conscious gastric fistula dog. The following applies: Stomach. It is filed as functional, organism-based.
Data set [8] shares this target. In words: Inhibition of pentagastrin-stimulated gastric acid secretion in intraduodenal bolus dosed conscious dual gastric fistula dog. Format: functional, organism-based. The following applies: Stomach.
Data set [9] deals with T4, Gastrin/cholecystokinin type B receptor. As to the kind of experiment: Displacement of […] from human recombinant CCK2 receptor expressed in NIH3T3 cells. It is filed as cell-based.
Data set [10] has as its target T3, Gastrin/cholecystokinin type B receptor (Canis lupus familiaris). In words: Inhibition of pentagastrin-stimulated gastric acid secretion in conscious gastric fistula dog at 1 mg/kg, iv. Format: functional, organism-based. The following applies: Stomach. On the set-up: dose 1 mg/kg.
For data set [11] the target is unchanged. As to the kind of experiment: Inhibition of pentagastrin-stimulated gastric acid secretion in conscious gastric fistula dog at 0.05 mg/kg, iv. It is filed as functional, organism-based. More on the design: dose 0.05 mg/kg. The conditions noted are these: Stomach.
Data set [12] in a line: Volume of distribution at steady state in dog at 2.5 mg/kg, iv. It is filed as ADME, organism-based, Canis lupus familiaris. On the set-up: dose 2.5 mg/kg, route intravenous. The conditions noted are these: in vivo, read-out: Vdss.
A short description of data set [13]: Plasma clearance in dog at 2.5 mg/kg, iv. It is filed as ADME, organism-based, Canis lupus familiaris. On the set-up: dose 2.5 mg/kg, route intravenous.
Data set [14] in a line: Cmax in po dosed dog. Format: ADME, organism-based, Canis lupus familiaris. More on the design: route oral. The following applies: in vivo.
Data set [15] in a line: Bioavailability in po dosed dog. Format: ADME, organism-based, Canis lupus familiaris. The conditions noted are these: in vivo.
A short description of data set [16]: Half life beta in po dosed dog. It is filed as ADME, organism-based, Canis lupus familiaris. The following applies: in vivo, read-out: beta t1/2 (converted).

A value given as a limit tells only on which side of the number the result lay.

The term Ki denotes a dissociation constant, usually derived from enzyme kinetics or from competition with a known ligand. `CC(C)(C)C(=O)CN1C(=O)N(CC(=O)Nc2cccc(-c3nc(=O)o[nH]3)c2)N=C(C2CCCCC2)c2ccccc21`: the values for the inhibitory constant (Ki) in data set [1], in data set [2] and in data set [4] were 589 nM, 4.47 nM and 0.2 nM, respectively. For the same compound, the Activity entry in [3] is “Dose-dependent effect”.
Regarding `CC(C)(C)C(=O)CN1C(=O)N(CC(=O)Nc2cccc(CC(=O)O)c2)N=C(C2CCCCC2)c2ccccc21`, the inhibitory constant (Ki) in [5] was greater than 10000 nM; in data set [2] it was 5.25 nM; in data set [4], 2.14 nM. The Kb in [6] was 9.77 nM. The Activity result in [7] is “Dose-dependent effect”.
Regarding `O=C(CN1N=C(C2CCCCC2)c2ccccc2N(CC(=O)C2CCCC2)C1=O)Nc1cccc(-c2noc(=O)[nH]2)c1`, the ID50 in data set [7] was less than 0.03 mg/kg; in data set [3], 0.016 mg/kg. The Activity result in [8] is “Dose-dependent effect”.
Turning to `CC1(C(=O)CN2C(=O)N(CC(=O)Nc3cccc(C(=O)O)c3)N=C(C3CCCCC3)c3ccccc32)CCCC1`, the inhibitory constant (Ki) in data set [9] was 1.2 nM; in data set [1], 3980 nM.
A word on the inhibition: it is how much of the control response was suppressed. A low value points to a response near the control. For `O=C(O)c1cccc(NC(=O)c2nc(C3CCCCC3)[nH]c2COC23CC4CC(CC(C4)C2)C3)c1`, the results for the inhibitory constant (Ki) in data set [5] and in [4] were greater than 10000 nM and 19.5 nM, respectively. The inhibition in data set [10] amounted to 66%; in data set [11] it was 97%.
For the compound `CC(C)CC1=NN(CC(=O)Nc2cccc(C(=O)O)c2)C(=O)N(CC(=O)C(C)(C)C)c2ccccc21`, the inhibition constant Ki is 89.1 nM in data set [9] and 7080 nM in data set [5].
`CC(C)(C)C(=O)CN1C(=O)N(CC(=O)Nc2cccc(SCC(=O)O)c2)N=C(C2CCCCC2)c2ccccc21`: the Ki was 646 nM in [5], 5.75 nM in data set [2] and 0.646 nM in data set [4]. For the same compound, the Kb in data set [6] is 2.75 nM.
Consider `CNc1cccc(NC(=O)N[C@@H]2N=C(c3ccccn3)c3ccccc3N(CC(=O)C(C)(C)C)C2=O)c1` [NETAZEPIDE], for which the inhibition constant (Ki) in [1] was 28.8 nM. Moreover, the inhibition in data set [10] turned out to be 66%; in data set [11] it was 97%.
Consider `O=C(CN1N=C(C2CCCCC2)c2ccccc2N(CC(=O)C2CCCC2)C1=O)Nc1cccc(C(=O)O)c1`, for which the Ki in [5] is greater than 10000 nM; in [2], 7.08 nM; in data set [4] it was 1 nM. The Kb in [6] was 1.95 nM.
Broadly, the clearance is a measure of how efficiently the substance is removed, as volume per time. Higher therefore signals a high capacity for elimination. Usually Cmax stands for the peak of the concentration-time curve. The bioavailability is dose-corrected exposure relative to a reference, in per cent. Turning to `O=C(CN1N=C(C2CCCCC2)c2ccccc2N(CC(=O)C2CCCC2)C1=O)Nc1cccc(-c2nc(=O)o[nH]2)c1`, the Ki in data set [1] is 468 nM; in data set [2] it was 4.47 nM; in [4], 0.107 nM. The Kb in [6] is 1.82 nM. For the same compound, the Vd in data set [12] amounted to 0.13 L/kg. In [13], this compound gave a clearance of 3.33 mL/min/kg. For the same compound, in data set [14], the peak level (Cmax) was 15 µM. Besides, the bioavailability in [15] stood at 41%. In addition, the half-life in data set [16] was 4.1 h.
